From patent US9371336B2, “Compounds for treating spinal muscular atrophy” (PTC Therapeutics Inc., priority 2012, dated 2016)

Legend:
[1] = system: SMN2 minigene mRNA (SMN2-A minigene construct); assay: SMN2 minigene mRNA splicing RT-qPCR assay in cultured cells; format: cell-based, human; details: Homo sapiens, HEK293-H; HEK293H cells stably transfected with SMN2-A minigene, 24 hours, 7-point concentration data; concentration giving 1.5-fold SMN2 full length mRNA relative to vehicle-treated cells; read-out: EC1.5x for production of full length SMN2 mRNA
Description: The reverse transcription-quantitative PCR-based (RT-qPCR) assay is used to quantify the level of the full length SMN2 minigene mRNA containing SMN2 exon 7 in a HEK293H cell line stably transfected with said minigene and treated with a test compound.
HEK293H cells stably transfected with the SMN2-A minigene construct described above (10,000 cells/well) are seeded in 200 μL of cell culture medium (DMEM plus 10% FBS, with 200 μg/mL hygromycin) in 96-well flat-bottom plates and the plate is immediately swirled to ensure proper dispersal of cells, forming an even monolayer of cells. Cells are allowed to attach for at least 4-6 hours. Test compounds are serially diluted 3.16-fold in 100% DMSO to generate a 7-point concentration curve. A solution of test compound (1 μL, 200× in DMSO) is added to each cell-containing well and the plate is incubated for 24 hours in a cell culture incubator (37° C., 5% CO2, 100% relative humidity). Two replicates are prepared for each test compound concentration. The cells are then lysed in Cells-To-Ct lysis buffer and the lysate is stored at −80° C.
Primer SMN Forward A (SEQ ID NO. 1) hybridizes to a nucleotide sequence in exon 7 (nucleotide 22 to nucleotide 40), primer SMN Reverse A (SEQ ID NO. 2) hybridizes to a nucleotide sequence in the coding sequence of Firefly luciferase, SMN Probe A (SEQ ID NO. 3) hybridizes to a nucleotide sequence in exon 7 (nucleotide 50 to nucleotide 54) and exon 8 (nucleotide 1 to nucleotide 21). The combination of these three oligonucleotides detects only SMN1 or SMN2 minigenes (RT-qPCR) and will not detect endogenous SMN1 or SMN2 genes.
The SMN forward and reverse primers are used at final concentrations of 0.4 μM. The SMN probe is used at a final concentration of 0.15 μM. The GAPDH primers are used at final concentrations of 0.2 μM and the probe at 0.15 μM.
The SMN2-minigene GAPDH mix (15 μL total volume) is prepared by combining 7.5 μL of 2×RT-PCR buffer, 0.4 μL of 25×RT-PCR enzyme mix, 0.75 μL of 20×GAPDH primer-probe mix, 4.0075 μL of water, 2 μL of 10-fold diluted cell lysate, 0.06 μL of 100 μM SMN forward primer, 0.06 μL of 100 μM SMN reverse primer, and 0.225 μL of 100 μM SMN probe.
PCR is carried out at the following temperatures for the indicated time: Step 1: 48° C. (15 min); Step 2: 95° C. (10 min); Step 3: 95° C. (15 sec); Step 4: 60° C. (1 min); then repeat Steps 3 and 4 for a total of 40 cycles.
Each reaction mixture contains both SMN2-A minigene and GAPDH primers/probe sets (multiplex design), allowing simultaneous measurement of the levels of two transcripts.
Two SMN spliced products are generated from the SMN2 minigene. The first spliced product containing exon 7, corresponding to SMN2 full length mRNA, is referred to herein using the term “SMN2 minigene FL.” The second spliced product lacking exon 7 is referred to herein using the term “SMN2 minigene Δ7.”
The increase of SMN2 minigene FL mRNA relative to that in cells treated with vehicle control is determined from real-time PCR data using a modified ΔΔCt method (as described in Livak and Schmittgen, Methods, 2001, 25:402-8). The amplification efficiency (E) is calculated from the slope of the amplification curve for SMN2 minigene FL and GAPDH individually. The abundances of SMN2 minigene FL and GAPDH are then calculated as (1+E)^−Ct, where Ct is the threshold value for each amplicon. The abundance of SMN2 minigene FL is normalized to GAPDH abundance. The normalized SMN2 minigene FL abundance from test compound-treated samples is then divided by normalized SMN2 minigene FL abundance from vehicle-treated cells to determine the level of SMN2 FL mRNA relative to vehicle control.

[2] = system: Smn protein; assay: Smn protein assay (HTRF) in cultured cells (SMA patient fibroblasts GM03813); format: cell-based, human; details: 48 hours; for EC1.5x for Smn protein expression: SMA patient fibroblast cells (GM03813), HTRF, 7-point concentration data, concentration producing 1.5 times Smn protein vs DMSO vehicle control; for maximum fold (Fold) increase of Smn protein: SMA patient fibroblast cells, 7-point concentration curve, relative to vehicle control
Description: The Smn HTRF (homogeneous time resolved fluorescence) assay is used to quantify the level of Smn protein in SMA patient fibroblast cells treated with test compounds.
Cells are thawed and cultured in DMEM-10% FBS for 72 hours. Cells are trypsinized, counted and re-suspended to a concentration of 25,000 cells/mL in DMEM-10% FBS. The cell suspension is plated at 5,000 cells per well in a 96 well microtiter plate and incubated for 3 to 5 hours. […] Test compounds are serially diluted 3.16-fold in 100% DMSO to generate a 7-point concentration curve. 1 μL of test compound solution is transferred to cell-containing wells and cells are incubated for 48 hours in a cell culture incubator (37° C., 5% CO2, 100% relative humidity). Triplicate samples are set up for each test compound concentration. After 48 hours, the supernatant is removed from the wells and 25 μL of the RIPA lysis buffer, containing protease inhibitors, is added to the wells and incubated with shaking at room temperature for 1 hour. 25 μL of the diluent is added and then 35 μL of the resulting lysate is transferred to a 384-well plate, where each well contains 5 μL of the antibody solution (1:100 dilution of anti-SMN d2 and anti-SMN kryptate in SMN reconstitution buffer). The plate is centrifuged for 1 minute to bring the solution to the bottom of the wells, then incubated overnight at room temperature. Fluorescence for each well of the plate at 665 nm and 620 nm is measured on an EnVision multilabel plate reader (Perkin-Elmer).
The normalized fluorescence signal is calculated for each sample, Blank and vehicle control well by dividing the signal at 665 nm by the signal at 620 nm. Normalizing the signal accounts for possible fluorescence quenching due to the matrix effect of the lysate. The ΔF value (a measurement of Smn protein abundance as a percent value) for each sample well is calculated by subtracting the normalized average fluorescence for the Blank control wells from the normalized fluorescence for each sample well, then dividing this difference by the normalized average fluorescence for the Blank control wells and multiplying the resulting value by 100. The ΔF value for each sample well represents the Smn protein abundance from test compound-treated samples. The ΔF value for each sample well is divided by the ΔF value for the vehicle control wells to calculate the fold increase in Smn protein abundance relative to the vehicle control.

| Structure (SMILES) | EC (1.5-fold) [1] [µM] | EC1.5x for Smn protein expression [2] | maximum fold (Fold) increase of Smn protein [2] |
| --- | --- | --- | --- |
| Cl.O=c1oc2nc(N3CCNCC3)ccc2cc1-c1nc2c(Cl)cccc2s1 [Cpd 2, 3-(4-chloro-1,3-benzothiazol-2-yl)-7-(piperazin-1-yl)-2H-pyrano[2,3-b]pyridin-2-one hydrochloride] | ≤ 0.1 | **** (an EC1.5×≦0.3 μM is indicated by four stars (****)) | ***** (a fold increase >1.65 is indicated by five stars (*****)) |
| O=c1oc2nc(N3CCN(CCCl)CC3)ccc2cc1-c1nc2ccccc2s1 [Cpd 4, 3-(1,3-benzothiazol-2-yl)-7-[4-(2-chloroethyl)piperazin-1-yl]-2H-pyrano[2,3-b]pyridin-2-one] | 1 to 3 |  | ** (a fold increase between >1.2 and ≦1.35 is indicated by two stars (**)) |
| CC(C)(C)OC(=O)N1CCN(c2cc3oc(=O)c(-c4nc5ccccc5s4)cc3cn2)CC1 [Cpd 7, tert-butyl 4-[3-(1,3-benzothiazol-2-yl)-2-oxo-2H-pyrano[3,2-c]pyridin-7-yl]piperazine-1-carboxylate] | 3 to 30 |  | * (A maximum fold increase ≦1.2 is indicated by one star (*)) |
| CC(C)(C)OC(=O)N1CCN(c2cc3oc(=O)c(-c4nc5c(Cl)cccc5s4)cc3cn2)CC1 [Cpd 8, tert-butyl 4-[3-(4-chloro-1,3-benzothiazol-2-yl)-2-oxo-2H-pyrano[3,2-c]pyridin-7-yl]piperazine-1-carboxylate] | 3 to 30 | * (An EC1.5× for Smn protein expression between >3 μM and ≦10 μM is indicated by one star (*)) | ***** (a fold increase >1.65 is indicated by five stars (*****)) |
| CN1CCN(c2cc3oc(=O)c(-c4nc5ccccc5s4)cc3cn2)CC1 [Cpd 14, 3-(1,3-benzothiazol-2-yl)-7-(4-methylpiperazin-1-yl)-2H-pyrano[3,2-c]pyridin-2-one] | 3 to 30 |  | * (A maximum fold increase ≦1.2 is indicated by one star (*)) |
| Cl.O=c1oc2nc(N3CCNCC3)ccc2cc1-c1cn2ccccc2n1 [Cpd 28, 3-(imidazo[1,2-a]pyridin-2-yl)-7-(piperazin-1-yl)-2H-pyrano[2,3-b]pyridin-2-one hydrochloride] | 0.1 to 0.3 |  | *** (a fold increase between >1.35 and ≦1.5 is indicated by three stars (***)) |
| Cc1ccc2nc(-c3cc4cnc(N5CCNCC5)cc4oc3=O)cn2c1 [Cpd 33, 3-(6-methylimidazo[1,2-a]pyridin-2-yl)-7-(piperazin-1-yl)-2H-pyrano[3,2-c]pyridin-2-one] | 1 to 3 | * (An EC1.5× for Smn protein expression between >3 μM and ≦10 μM is indicated by one star (*)) | *** (a fold increase between >1.35 and ≦1.5 is indicated by three stars (***)) |
| Cc1cc(Cl)c2nc(-c3cc4cnc(N5CCNCC5)cc4oc3=O)cn2c1.Cl [Cpd 35, 3-(8-chloro-6-methylimidazo[1,2-a]pyridin-2-yl)-7-(piperazin-1-yl)-2H-pyrano[3,2-c]pyridin-2-one hydrochloride] | 3 to 30 |  | ** (a fold increase between >1.2 and ≦1.35 is indicated by two stars (**)) |
| Cc1ccn2cc(-c3cc4cnc(N5CCNCC5)cc4oc3=O)nc2c1.Cl [Cpd 40, 3-(7-methylimidazo[1,2-a]pyridin-2-yl)-7-(piperazin-1-yl)-2H-pyrano[3,2-c]pyridin-2-one hydrochloride] | 0.3 to 1 |  | ** (a fold increase between >1.2 and ≦1.35 is indicated by two stars (**)) |
| Cc1cn2cc(-c3cc4cnc(N5CCNCC5)cc4oc3=O)nc2s1.Cl [Cpd 41, 3-(2-methylimidazo[2,1-b][1,3]thiazol-6-yl)-7-(piperazin-1-yl)-2H-pyrano[3,2-c]pyridin-2-one hydrochloride] | 0.3 to 1 |  | ** (a fold increase between >1.2 and ≦1.35 is indicated by two stars (**)) |
| Cc1ccn2nc(-c3cc4ccc(N5CCNCC5)nc4oc3=O)cc2c1.Cl [Cpd 43, 3-(5-methylpyrazolo[1,5-a]pyridin-2-yl)-7-(piperazin-1-yl)-2H-pyrano[2,3-b]pyridin-2-one hydrochloride] | 0.1 to 0.3 | **** (an EC1.5×≦0.3 μM is indicated by four stars (****)) | **** (a fold increase between >1.5 and ≦1.65 is indicated by four stars (****)) |
| Cl.O=c1oc2nc(N3CCNCC3)ccc2cc1-c1cn2ccsc2n1 [Cpd 44, 3-(imidazo[2,1-b][1,3]thiazol-6-yl)-7-(piperazin-1-yl)-2H-pyrano[2,3-b]pyridin-2-one hydrochloride] | ≤ 0.1 | ** (an EC1.5× between >1 and ≦3 μM is indicated by two stars (**)) | *** (a fold increase between >1.35 and ≦1.5 is indicated by three stars (***)) |
| Cc1ccn2cc(-c3cc4cnc(N5CCN(C)CC5)cc4oc3=O)nc2c1 [Cpd 57, 3-(7-methylimidazo[1,2-a]pyridin-2-yl)-7-(4-methylpiperazin-1-yl)-2H-pyrano[3,2-c]pyridin-2-one] | 0.3 to 1 |  | ** (a fold increase between >1.2 and ≦1.35 is indicated by two stars (**)) |
| Cc1ccn2cc(-c3cc4ccc(N5CCN[C@@H](C)C5)nc4oc3=O)nc2c1 [Cpd 58, 3-(7-methylimidazo[1,2-a]pyridin-2-yl)-7-[(3S)-3-methylpiperazin-1-yl]-2H-pyrano[2,3-b]pyridin-2-one] | ≤ 0.1 | **** (an EC1.5×≦0.3 μM is indicated by four stars (****)) | **** (a fold increase between >1.5 and ≦1.65 is indicated by four stars (****)) |
